Assay results published in the NIST ThermoML archive (doi:10.1016/j.jct.2012.09.016).

Tests used:
[1] = Liquid, Vibrating tube method
[2] = molar heat capacity at constant pressure; details: Liquid, Small sample (50 mg) DSC

CCCCCN [1-pentanamine]
Details	mass density, [1] [kg/m3]	molar heat capacity at constant pressure, [2] [J/K/mol]
293.15 K, 100 kPa	754	–
293.15 K, 10000 kPa	760.8	–
293.15 K, 20000 kPa	767.2	–
293.15 K, 30000 kPa	773.3	–
293.15 K, 40000 kPa	779	–
293.15 K, 50000 kPa	784.3	–
293.15 K, 60000 kPa	789.3	–
293.15 K, 70000 kPa	794	–
293.15 K, 80000 kPa	798.5	–
293.15 K, 90000 kPa	802.9	–
293.15 K, 100000 kPa	806.9	–
293.15 K, 110000 kPa	810.9	–
293.15 K, 120000 kPa	814.6	–
293.15 K, 130000 kPa	818.2	–
293.15 K, 140000 kPa	821.8	–
313.15 K, 100 kPa	–	221.7
313.15 K, 20000 kPa	–	219.7
313.15 K, 40000 kPa	–	218.3
313.15 K, 60000 kPa	–	217.9
323.15 K, 100 kPa	–	222.7
323.15 K, 20000 kPa	–	220.1
323.15 K, 40000 kPa	–	218.7
323.15 K, 60000 kPa	–	218.3
333.15 K, 100 kPa	–	223.9
333.15 K, 20000 kPa	–	220.8
333.15 K, 40000 kPa	–	219.4
333.15 K, 60000 kPa	–	218.9
343.15 K, 100 kPa	–	225.3
343.15 K, 20000 kPa	–	221.8
343.15 K, 40000 kPa	–	220.5
343.15 K, 60000 kPa	–	219.8
353.15 K, 100 kPa	698.5	226.9
353.15 K, 10000 kPa	709.4	–
353.15 K, 20000 kPa	718.5	223.3
353.15 K, 30000 kPa	726.8	–
353.15 K, 40000 kPa	734.3	221.8
353.15 K, 50000 kPa	741.2	–
353.15 K, 60000 kPa	747.6	221.1
353.15 K, 70000 kPa	753.6	–
353.15 K, 80000 kPa	759.3	–
353.15 K, 90000 kPa	764.7	–
353.15 K, 100000 kPa	769.8	–
353.15 K, 110000 kPa	774.5	–
353.15 K, 120000 kPa	779	–
353.15 K, 130000 kPa	783.5	–
353.15 K, 140000 kPa	787.7	–
363.15 K, 100 kPa	688.6	–
363.15 K, 10000 kPa	700.1	–
363.15 K, 20000 kPa	710	225.1
363.15 K, 30000 kPa	718.7	–
363.15 K, 40000 kPa	726.6	223.5
363.15 K, 50000 kPa	733.9	–
363.15 K, 60000 kPa	740.6	222.6
363.15 K, 70000 kPa	746.9	–
363.15 K, 80000 kPa	752.8	–
363.15 K, 90000 kPa	758.5	–
363.15 K, 100000 kPa	763.7	–
363.15 K, 110000 kPa	768.7	–
363.15 K, 120000 kPa	773.4	–
363.15 K, 130000 kPa	777.9	–
363.15 K, 140000 kPa	782.1	–
373.15 K, 100 kPa	679	–
373.15 K, 10000 kPa	691.5	–
373.15 K, 20000 kPa	702	227.4
373.15 K, 30000 kPa	711.3	–
373.15 K, 40000 kPa	719.6	225.5
373.15 K, 50000 kPa	727.1	–
373.15 K, 60000 kPa	734.1	224.5
373.15 K, 70000 kPa	740.5	–
373.15 K, 80000 kPa	746.7	–
373.15 K, 90000 kPa	752.3	–
373.15 K, 100000 kPa	757.6	–
373.15 K, 110000 kPa	762.7	–
373.15 K, 120000 kPa	767.6	–
373.15 K, 130000 kPa	772.2	–
373.15 K, 140000 kPa	776.6	–
383.15 K, 10000 kPa	682.6	–
383.15 K, 20000 kPa	693.8	230
383.15 K, 30000 kPa	703.7	–
383.15 K, 40000 kPa	712.3	227.8
383.15 K, 50000 kPa	720.3	–
383.15 K, 60000 kPa	727.5	226.6
383.15 K, 70000 kPa	734.3	–
383.15 K, 80000 kPa	740.6	–
383.15 K, 90000 kPa	746.5	–
383.15 K, 100000 kPa	752	–
383.15 K, 110000 kPa	757.2	–
383.15 K, 120000 kPa	762.2	–
383.15 K, 130000 kPa	766.8	–
383.15 K, 140000 kPa	771.4	–
393.15 K, 10000 kPa	673.1	–
393.15 K, 20000 kPa	685.2	232.9
393.15 K, 30000 kPa	695.5	–
393.15 K, 40000 kPa	704.7	230.4
393.15 K, 50000 kPa	713.2	–
393.15 K, 60000 kPa	720.8	229
393.15 K, 70000 kPa	727.9	–
393.15 K, 80000 kPa	734.4	–
393.15 K, 90000 kPa	740.3	–
393.15 K, 100000 kPa	746	–
393.15 K, 110000 kPa	751.4	–
393.15 K, 120000 kPa	756.5	–
393.15 K, 130000 kPa	761.4	–
393.15 K, 140000 kPa	766	–
403.15 K, 10000 kPa	664.1	–
403.15 K, 20000 kPa	677	236.3
403.15 K, 30000 kPa	687.8	–
403.15 K, 40000 kPa	697.3	233.3
403.15 K, 50000 kPa	705.9	–
403.15 K, 60000 kPa	713.9	231.8
403.15 K, 70000 kPa	721	–
403.15 K, 80000 kPa	727.8	–
403.15 K, 90000 kPa	734	–
403.15 K, 100000 kPa	739.9	–
403.15 K, 110000 kPa	745.4	–
403.15 K, 120000 kPa	750.7	–
403.15 K, 130000 kPa	755.7	–
403.15 K, 140000 kPa	760.5	–
